The record followed here is patent US10188718B2, “Vaccines against Streptococcus pneumoniae serotype 4” (MAX-PLANCK-GESELLSCHAFT ZUR FÖRDERUNG DER WISSENSCHAFTEN …, priority 2014, dated 2019).

SMILES strings stand for the structures. Entries after “also recorded” stand apart in the source; their conditions may differ.

This assay relates to human reference serum 007sp. Nature of the assay: Glycan array, antibody binding from human reference serum 007sp with CPS/CWPS competition. Conditions: glycan array competition experiment, serum 007sp (FIG. 5, FIG. 6), 24* compared with 16*. As for the experimental part: Pyruvated SP4 tetrasaccharide 24* was dissolved at 10 mM in water and diluted to 100 μM and 50 μM in coupling buffer (50 mM sodium phosphate, pH 8.5). Each concentration was spotted in duplicates to CodeLink activated glass slides (Surmodics) alongside a number of related structures and native polysaccharides (see FIG. 4 for printing pattern) using a Scienion S3 microarray printer at 65% relative humidity. The slides were incubated in a humidity saturated chamber overnight. They were washed twice with water and quenched by incubation with 100 mM ethanolamine, 50 mM sodium phosphate pH 9 for one hour at room temperature. They were washed again twice, dried by centrifugation and stored at 4° C. until use.
Slides were blocked by incubation with 1% BSA-PBS at room temperature, washed twice with PBS and dried by centrifugation. A 64 well incubation gasket was attached to the glass slides.
Sera (rabbit SP4 typing serum (SSI Diagnostica, Denmark) or human reference serum 007sp (Clin. Vaccine Immunol. 2011 18 (10), 1728)) were diluted in 1% BSA-PBS containing no competitors or native SP4 CPS (capsular polysaccharide) or CWPS (S. pneumoniae cell wall polysaccharide) as competitors. […] It was dried by centrifugation and the fluorescence was read out using s GenePix 4300a fluorescence reader.

Regarding `CC(=O)N[C@@H]1[C@H](O[C@@H]2[C@H](O)[C@H](C)O[C@@H](O[C@H]3[C@@H](O)[C@@H](CO)O[C@H](O[C@@H]4[C@H](O)[C@@H](O)[C@@H](OCCCCCN)O[C@@H]4CO)[C@@H]3NC(C)=O)[C@H]2NC(C)=O)O[C@H](CO)[C@@H](O)[C@@H]1O` [compound 16*, N-((2R,3S,4R,5S,6R)-2-(((2S,3S,4S,5R,6S)-3-acetamido-2-(((2R,3R,4R,5R,6R)-3-acetamido-2-(((2R,3R,4R,5R,6S)-6-((5-aminopentyl)oxy)-4,5-dihydroxy-2-(hydroxymethyl)tetrahydro-2H-pyran-3-yl)oxy)-5-hydroxy-6-(hydroxymethyl)tetrahydro-2H-pyran-4-yl)oxy)-5-hydroxy-6-methyltetrahydro-2H-pyran-4-yl)oxy)-4,5-dihydroxy-6-(hydroxymethyl)tetrahydro-2H-pyran-3-yl)acetamide], the “inhibition (decline) of signal by native S. pneumoniae serotype 4 CPS” value was “Compared to unpyruvated tetrasaccharide 16*, the signal for the pyruvated saccharide 24* can be inhibited far more efficiently; also recorded: much stronger for pyruvated tetrasaccharide 24* (spot B) compared with unpyruvated tetrasaccharide 16*”.
